Assay results taken from patent US7312358B2, “Pharmaceutically active sulfanilide derivatives” (Laboratoires Serono SA, priority 2000, dated 2007).

Experiments:
ratOT-R = target: T1, ratOT-R (Rattus norvegicus, UniProt P70536); assay: Inhibition of IP3 (inositol tri-phosphate)-synthesis in HEK/EBNA-OTR cells; format: cell-based; details: [3H]-inositol, oxytocin 10 nM
T1 construct: expressed in transfected cells; host or cells: HEK/EBNA cells
T1 sequence (P70536 1-388): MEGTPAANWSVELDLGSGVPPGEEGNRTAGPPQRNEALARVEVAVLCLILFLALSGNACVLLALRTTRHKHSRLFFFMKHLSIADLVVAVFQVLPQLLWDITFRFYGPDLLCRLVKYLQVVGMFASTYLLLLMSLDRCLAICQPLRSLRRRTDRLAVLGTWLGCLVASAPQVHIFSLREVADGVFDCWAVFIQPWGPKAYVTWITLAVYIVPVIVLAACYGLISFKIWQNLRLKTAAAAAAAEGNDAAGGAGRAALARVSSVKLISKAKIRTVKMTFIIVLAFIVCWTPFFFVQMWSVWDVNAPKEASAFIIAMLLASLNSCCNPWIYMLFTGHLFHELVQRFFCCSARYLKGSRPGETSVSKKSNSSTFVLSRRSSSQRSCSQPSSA
Procedure: e) Functional Assay No. 2: Inhibition of IP3 (Inositol Tri-Phosphate)-Synthesis in HEK/EBNA-OTR Cells
This assay intends to show the inhibition of the OT/OT-R mediated IP3 synthesis—being necessary to cause uterine contractions—by using test compounds of formula (I).
Stimulation of the cells: IIEK/EBNA OTR(rat or human) cells were plated out into costar 12-well plates, and equilibrated for 15-24 h with [^3H]-inositol radiolabel in medium without inositol supplement, with 1% FCS (0.5 ml/well). 4 μCi/ml were used. After this, the medium containing the label was aspirated. Then was added DMEM (without FCS, inositol), 20 mM Hepes (4-(2-hydroxyethyl)-1-piperazine-ethane-sulphonic acid), 1 mg/ml BSA containing 10 mM LiCl (freshly prepared), for […] at 37° C. The agonist (i.e. oxytocin used at a concentration of 10 nM) and the antagonists (i.e. the tests compounds of formula (1) used in a concentration of 10 μM, 1 μM, 300 nM, 100 nM, 10 nM, 1 nM, 100 pM, 10 pM, 3 pM) were added for the time required (15-45 min), followed by aspiration of the medium. Due to the […] of the OT receptor, the radiolabeled inositol is phosphorylated to yield IP3, the amount of the radiolabeled IP3 may be determined through the ensuing work-up. The reaction was stopped with 1 ml STOP-solution (i.e. 0.4 M perchloric acid), and let sit for 5-10 min at Room Temperature. Then, 0.8 ml were transferred into tubes containing 0.4 ml of neutralizing solution (0.72 M KOH/0.6M KHCO3), and the tubes vortexed and kept in the cold at least for 2 h.
Separation of IP's: The samples were spun in a table top centrifuge at 3000-4000 rpm for 15 min. 1 ml of the supernatant was transferred to new tubes containing 2.5 ml H2O. Packed resin (0.8 ml) was equilibrated with 20 ml H2O, and the whole samples poured onto the chromatography columns, thus separating the mixture. To discard free inositol, two washes with 10 ml H2O were carried out.
Elution of total IP's: The elution was achieved using 3 ml 1M ammonium formate/0.1M formic acid. The eluant was collected in scintillation counting tubes, followed by addition of 7 ml of scintillation liquid. The amount of IP3 is determined by a scintillating counter.
The activities of the sulfanilide derivatives claimed in the formula I were assessed using the above described in vitro biological assay. The values refer to the capacity of the example compounds according to formula I to effectively antagonize oxytocin-induced IP3-synthesis mediated by the oxytocin receptor.

[1] = system: oxytocin-induced uterine contractions in the rat; assay: In vivo model for inhibition of uterine contractions; details: anaesthetised DES-treated non-pregnant female rat, route not given
Procedure: f) In Vivo Model for Inhibition of Uterine Contractions
The assay intends to show the biological effect of tested compounds in an in vivo model of preterm labor, premature birth.
Non-pregnant Charles River CD(SD) BR female rats (9-10 weeks old, 200-250 g) were treated at 18 and 24 hours before the experiment with 250 μg/kg, i.p. diethylstilbestrol (DES). For the assay, the animal was anaesthetised by urethane (1.75 g/kg, i.p.) and placed on an homeothennic operating table. The trachea was isolated and cannulated with a suitable polyethylene (PE) tubing. A midline incision at the hypogastrium level was made and one uterine horn exposed, its cephalic end cannulated with a PE240 tubing and, after filling the internal cavity with 0.2 ml of sterile physiological saline, connected to a “Gemini” amplifying/recording system via a P231D Gould Statham pressure transducer. For the i.v. route of administration of the test compounds, one jugular vein was isolated and cannulated with a PE60 tubing connected to a butterfly needle to allow the administration by a dispensing syringe. In the case of intraduodenal administration of the test compounds, the duodenum was isolated and similarly cannulated through a small incision in its wall. One carotid artery was also isolated and cannulated with PE60 catheter and connected to a suitable syringe for blood sample collection (see below). After a stabilization period, the same dose of oxytocin was repeatedly injected intravenously at 30-min intervals. […] Further injections of the same dose of oxytocin were then made for a suitable time after treatment to assess inhibitory effects of the compounds under study. The contractile response of the uterus to oxytocin was quantified by measuring the intra-uterine pressure and the number of contractions. The effect of the reference and test compounds were evaluated by comparing pre- and post-treatment pressure values. In addition, at 2, 30, 90 and 210 minutes after test compound administration, a 0.5-ml blood sample was withdrawn from the cannulated carotid artery of each experimental animal. Plasma was obtained by standard laboratory procedure and the resulting samples were stored at −20° C.
The activities of the sulfanilide derivatives claimed in the Formula I were assessed using the above described in vivo biological assay. The values refer to the capacity of the example compound according to Formula I to effectively antagonize oxytocin-induced uterine contractions in the rat.

## CCOc1ccc(S(=O)(=O)N(CC(=O)N/N=C2/C(=O)Nc3ccccc32)c2ccc(C)cc2)cc1 [Example 5, 4-ethoxy-N-(4-methylphenyl)-N-{2-oxo-2-[2-(2-oxo-1,2-dihydro-3H-indol-3-ylidene)hydrazino]ethyl}benzenesulfonamide]
ratOT-R
  IC50: 13 nM
[1]; dose 5 mg/kg
  % Reduction of Uterine Contraction: 23.9 ± 4.0%
[1]; dose 7.5 mg/kg
  % Reduction of Uterine Contraction: 40.3 ± 4.2%
[1]; dose 10 mg/kg
  % Reduction of Uterine Contraction: 62.6 ± 5.0%
